Experimental data taken from patent publication US20260345612A1, “THERAPEUTIC COMBINATIONS COMPRISING UBIQUITIN-SPECIFIC-PROCESSING PROTEASE 1 (USP1) INHIBITORS AND PARP1-SELECTIVE INHIBITORS” (KSQ Therapeutics, Inc., priority 2022, published 2026).

Assays:
[1] = test system: olaparib resistant patient-derived breast xenograft; assay: Anti-tumor activity in olaparib resistant patient-derived breast xenograft model in nude mice; format: in vivo, Athymic nude mice
Excerpt: Example 1: Anti-Tumor Activity of Formula I Co-Crystal in Combination with the Selective PARP1 Inhibitor, AZD5305, in a Patient-Derived Breast Xenograft Model in Nude Mice
The USP1 inhibitor employed in the examples is the co-crystal described above in paragraphs and [0143]-[0155]. This co-crystal can be prepared as described in Example 6 of Published PCT WO2022/094096. The Formula I co-crystal is a co-crystal of gentisic acid and 6-(4-cyclopropyl-6-methoxypyrimidin-5-yl)-1-(4-(1-isopropyl-4-(trifluoromethyl)-1H-imidazol-2-yl)benzyl)-1H-pyrazolo[3,4-d]pyrimidine.
Anti-tumor activity of the USP1 inhibitor of Formula I co-crystal in combination with AZD5305 was evaluated in mice using an olaparib resistant patient-derived breast xenograft model in nude mice, as shown in FIGS. 1A through 1C. 6-9 week old female Athymic nude mice from Envigo were anesthetized, and a 20 mm^3 tumor fragment was placed subcutaneously via incision in the flank. When tumors established to a tumor volume ranging from 63 to 196 mm^3, mice were randomized into groups of 10 and were assigned into the following groups: control, Formula I (100 mg/kg), AZD5305 (10 mg/kg) or Formula I (100 mg/kg) and AZD5305 (10 mg/kg) in combination. […] Body weight and tumor volume were measured twice per week. Tumor volume was calculated as mean and standard error of the mean for each treatment group.

[2] = test system: breast xenograft tumors with resistance to AZD5305 monotherapy; assay: Combination activity in mice with tumors resistant to PARP inhibitors (AZD5305 monotherapy); format: in vivo, Athymic nude mice; settings: from day 49, 5 mice resistant to AZD5305 monotherapy; Formula I (100 mg/kg) and AZD5305 (10 mg/kg); FIG. 1B
Description: Anti-tumor activity of the USP1 inhibitor of Formula I co-crystal in combination with AZD5305 was evaluated in mice using an olaparib resistant patient-derived breast xenograft model in nude mice, as shown in FIGS. 1A through 1C. 6-9 week old female Athymic nude mice from Envigo were anesthetized, and a 20 mm^3 tumor fragment was placed subcutaneously via incision in the flank. When tumors established to a tumor volume ranging from 63 to 196 mm^3, mice were randomized into groups of 10 and were assigned into the following groups: control, Formula I (100 mg/kg), AZD5305 (10 mg/kg) or Formula I (100 mg/kg) and AZD5305 (10 mg/kg) in combination. Compound was administered via oral gavage once daily for at least 42 days dependent upon the treatment group. Body weight and tumor volume were measured twice per week. Tumor volume was calculated as mean and standard error of the mean for each treatment group.

CCc1cc2ncc(CN3CCN(c4ccc(C(=O)NC)nc4)CC3)cc2[nH]c1=O [AZD5305, 5-[4-[(7-ethyl-6-oxo-5H-1,5-naphthyridin-3-yl)methyl]piperazin-1-yl]-N-methylpyridine-2-carboxamide, reference compound]
resistance to AZD5305 monotherapy ([1]; AZD5305 (10 mg/kg) monotherapy, oral once daily, day 49, 5 mice): demonstrated resistance

COc1ncnc(C2CC2)c1-c1ncc2cnn(Cc3ccc(-c4nc(C(F)(F)F)cn4C(C)C)cc3)c2n1 [Formula I, 6-(4-cyclopropyl-6-methoxypyrimidin-5-yl)-1-(4-(1-isopropyl-4-(trifluoromethyl)-1H-imidazol-2-yl)benzyl)-1H-pyrazolo[3,4-d]pyrimidine]
anti-tumor activity compared to equivalent doses of the single agents ([1]; Formula I (100 mg/kg) and AZD5305 (10 mg/kg), oral gavage once daily, at least 42 days, FIG. 1A): enhances antitumor activity of AZD5305
tumor volume after addition of Formula I, compared to remaining animals on AZD5305 monotherapy [2]: decrease in tumor volume
